Experimental data published in patent US10888588B2, “Directed cardiomyocyte differentiation and ventricular specification of stem cells” (ICAHN SCHOOL OF MEDICINE AT MOUNT SINAI, priority 2013, dated 2021).

How the values were obtained:
HES2-VCMs = conditions: H2O2 100 μM, 30 minutes, 37° C.; ratio before stress 1.146
Procedure: Mitochondrial membrane potential in HES2-VCMs was measured with the potential-sensitive dye JC-1 (Invitrogen). LV-MLC2v-Tdtomato-T2A-Zeo transduced and Zeo-selected HES2-VCMs (30- to 50-day-old) were incubated at 37° C. with 0.5 μM JC-1 in serum free DMEM medium for 15 minutes. To simulate metabolic oxidative stress, hES2-VCMs were treated with hydrogen peroxide (H2O2; 100 μM) for 30 minutes at 37° C., after which JC-1 orange and green fluorescence intensities were measured for mitochondrial membrane potential with a LSM Carl Zeiss 510 Meta microscope.

Wnt/β-catenin pathway = assay: Directed differentiation to ventricular cardiomyocytes with Wnt inhibition; type: cell-based, human
Excerpt: (§1) As detailed in the following examples, cardiac differentiation was initiated by formation of embryoid bodies (EBs) in suspension culture from hESCs as exemplary stem cells, maintained in feeder-free, serum-free culture. […] In the first phase of the differentiation process (Stage 1; days 2-4.5), the cells were differentiated into primitive streak-mesendoderm and subsequently to cardiac mesoderm by the combinatorial activation of the BMP and Nodal signaling pathways. In the second phase (Stage 2; days 4.5-8) the inhibition of the Wnt/β-catenin pathway by the small molecule IWR-1^29 enhanced the differentiation of the cardiac progenitors to the ventricular cardiomyocyte lineage.
For directed cell differentiation, undifferentiated hPSCs were digested into smaller clusters using Dispase (STEMCELL Technologies; 1 mg/ml for 8 minutes at 37° C.) and seeded onto Matrigel™-coated plates at 3×10^4 cells/ml in mTeSR™ 1 medium for 4 days until there was about 80-90% confluence on D0. To initiate cardiac differentiation, hPSCs were digested into single cell suspensions using Accutase (Invitrogen) and cultured in mTeSR™ 1 medium with Matrigel™ (40 μg/ml) with BMP-4 (1 ng/ml, Invitrogen) and Rho kinase inhibitor (ROCK) Inhibitor (10 μM; R&D) under a hypoxic condition with 5% O2. […] Cardiac mesodermal cells developed into functional contracting clusters could be detected as early as day 8. […]

hPSC = conditions: cited from earlier work
hESCs = assay: Embryoid body formation from dissociated hESCs; type: cell-based, human; conditions: EB formation in suspension culture
Excerpt: as §1

hESC-VCMs = assay: Patch-clamp AP recording and confocal Ca2+ imaging of hESC-VCMs; type: cell-based, human
Procedure: The electrophysiological experiments disclosed in the Examples were performed using the whole-cell patch-clamp technique as previously described.^65-67 To profile chamber-specific subtypes of the hPSC-CMs, action potentials of the myocytes were randomly probed at 37° C. with the patch-clamp technique using an EPC-10 amplifier and Pulse software (Heka Elektronik, Germany), with the current-clamp mode (0.1-0.5 nA for 1-5 ms) under the whole-cell configuration applied. The hPSC-CMs were categorized into nodal-, atrial- or ventricular-like, as previously described.^62,65,66 Voltage-clamp recordings of ionic currents were performed using an automated parallel patch-clamp system (PatchXpress 7000A, Molecular Devices) using standard electrophysiological and pharmacological protocols for isolating the ionic component of interest.
Intracellular Ca^2+ ([Ca^2+]i) transients were imaged by a spinning disc laser confocal microscope (PerkinElmer) on hPSC-CMs loaded with 1.5 μM X-Rhod-1 (Invitrogen) as previously described^66. After dye loading, experiments were performed at 37° C. in Tyrode's solution containing: 140 mM NaCl, 5 mM KCl, 1 mM MgCl2, 1.25 mM CaCl2, 10 mM HEPES and 10 mM D-glucose at pH 7.4. […] The amplitudes of E[Ca^2+]i are presented as the background corrected pseudo ratio (ΔF/F)=(F−Fbase)/(Fbase−B) where Fbase and F is the measured fluorescence intensity before and after stimulation, respectively, and B is the average background signal from areas adjacent to the targeted cell. The transients rise (Vupstroke) and the transients decay (Vdecay) were subsequently calculated and analyzed.
Initially, electrophysiological profiles were obtained and analyzed from patch-clamp recordings and Ca^2+-imaging performed on 30- to 50-day-old single cells isolated from cardiogenic EBs.

## OO [H2O2, hydrogen peroxide]
HES2-VCMs
  JC-1 orange/green intensity ratio: 0.410

## O=C(Nc1cccc2cccnc12)c1ccc(N2C(=O)[C@@H]3[C@H](C2=O)[C@@H]2C=C[C@H]3C2)cc1 [IWR-1]
Wnt/β-catenin pathway; Stage 2, days 4.5-8
  differentiation of cardiac progenitors to the ventricular cardiomyocyte lineage: enhanced
Wnt/β-catenin pathway; timely inhibition of Wnt/β-catenin pathway
  heterogeneity of the hESC-derived cardiomyocytes: reduced

## COc1ccc(CCC(=O)Nc2nc3ccc(Cl)cc3s2)cc1OC [KY02111]
hPSC; about 4.2×10^6 hPSC-CM from about 6×10^6 seeded per well
  hPSC-CM per hPSC: 0.7 hPSC-CM per hPSC
hPSC; serum- and xeno-free, four hiPSC lines, by inhibiting WNT signaling
  yield of CM from hPSC differentiation: up to 98%

## Cc1ccc2c(c1)C(=O)C1(O)CCN(c3ccccc3)C1=N2 (stereo not shown) [blebbistatin]
hESCs
  EB formation efficiency: significantly increased
  dissociation-induced apoptosis of hESCs: inhibited

## Cn1c(=O)c2c(ncn2C)n(C)c1=O [caffeine]
hESC-VCMs
  caffeine-induced Ca2+ flux (functional sarcoplasmic reticulum): observed

## CC(C)NCC(O)c1ccc(O)c(O)c1 (stereo not shown) [isoproterenol]
hESC-VCMs; 30- to 50-day-old single cells, β-adrenergic stimulation
  chronotropic response (spontaneous AP and Ca2+ transient firings): positive chronotropic response
hESC-VCMs; β-adrenergic stimulation, p>0.05
  Ca2+ transient amplitude (ionotropic response): remained unchanged
